Source: the NIST ThermoML archive (doi:10.1021/acs.jced.8b00601)
Numbers after ± are expanded uncertainties.

Assay: activity coefficient (dimensionless); of the first substance listed, at infinite dilution; xn = mol fraction of the nth substance listed
Conditions: 101.33 kPa, Liquid, Chromatography, x1 = 0

Row | Compound | activity coefficient (313 K) | activity coefficient (323 K) | activity coefficient (333 K) | activity coefficient (343 K)
1 | ClC(Cl)(Cl)Cl [tetrachloromethane] + O=S(=O)([N-]S(=O)(=O)C(F)(F)F)C(F)(F)F.O=S(=O)([N-]S(=O)(=O)C(F)(F)F)C(F)(F)F.O=S(=O)([N-]S(=O)(=O)C(F)(F)F)C(F)(F)F.c1ccc2cc(-n3cc[n+](Cc4cc(C[n+]5ccn(-c6ccc7ccccc7c6)c5)cc(C[n+]5ccn(-c6ccc7ccccc7c6)c5)c4)c3)ccc2c1 | 4.72 ± 0.51 | 4.27 ± 0.47 | 3.29 ± 0.38 | 2.6 ± 0.31
2 | Cc1ccccc1 [toluene] + O=S(=O)([N-]S(=O)(=O)C(F)(F)F)C(F)(F)F.O=S(=O)([N-]S(=O)(=O)C(F)(F)F)C(F)(F)F.O=S(=O)([N-]S(=O)(=O)C(F)(F)F)C(F)(F)F.c1ccc2cc(-n3cc[n+](Cc4cc(C[n+]5ccn(-c6ccc7ccccc7c6)c5)cc(C[n+]5ccn(-c6ccc7ccccc7c6)c5)c4)c3)ccc2c1 | 3.82 ± 0.43 | 3.05 ± 0.35 | 2.42 ± 0.29 | 1.69 ± 0.23
